Source: US12559504B2, “Benzotriazole derivative” (UBE CORPORATION, priority 2019, dated 2026)

Assays:
[1] = Metabolism test using human liver microsome fractions; type: in vitro ADME; settings: human liver microsomes, test compound 10 μmol/L, NADPH and UDP-glucuronic acid, 37° C.
Method in brief: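 Compound depletion at 10 μmol/L final, 37 °C, followed by UV-HPLC of acetonitrile-quenched aliquots taken 0, 5, 10, 15, 20, 30 min; incubations contained microsomes (1 mg protein, human or monkey) with NADPH and UDPGA cofactors. Rate = slope over linear range.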

[2] = target: T1, GST fusion human Keap1 (amino acid residue: 325-624) protein (Homo sapiens, UniProt Q14145); test: Keap1-Nrf2 binding inhibition test (fluorescence polarization); settings: compound concentration of 100 nM; read-out: inhibition rate
T1 construct: GST fusion human Keap1 (amino acid residue: 325-624) protein; purchased Protein tech Ag0779
T1 sequence (Q14145 325-624): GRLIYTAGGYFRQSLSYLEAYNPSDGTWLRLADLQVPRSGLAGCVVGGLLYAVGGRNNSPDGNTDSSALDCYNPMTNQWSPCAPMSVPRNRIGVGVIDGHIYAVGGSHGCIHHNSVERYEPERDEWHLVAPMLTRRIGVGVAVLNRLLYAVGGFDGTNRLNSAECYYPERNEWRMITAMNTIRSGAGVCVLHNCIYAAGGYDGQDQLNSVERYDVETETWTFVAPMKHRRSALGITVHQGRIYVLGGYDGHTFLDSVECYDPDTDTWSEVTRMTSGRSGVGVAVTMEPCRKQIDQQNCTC
Method in brief: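 Fluorescence polarization with FITC-labelled Nrf2 peptide (FITC-Ahx-LDEETGEFL-NH2) and GST-human Keap1 (325-624) in 20 mM Tris pH 7.5, 150 mM NaCl, 0.05% Tween 20, 5 mM DTT, BSA; 30 min at room temperature, ex 482/em 530 nm. Percent inhibition at 100 nM compound, Keap1-free wells = 100%.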

NQO1 [3] = test: NQO1 enzyme induction test (in vitro) in Hepa1c1c7 cells; type: cell-based; settings: Mus musculus, Hepa-1c1c7, 48 h, concentration to elevate the NQO1 activity by 1.5 times, about 48 hours, read-out: EC150
Method in brief: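 Mouse Hepa1c1c7 cells treated about 48 h with compound (0.1% DMSO final), then lysed. NQO1 activity read as MTT reduction at 540 nm with menadione substrate, 5 min at room temperature, and corrected for cell number by CellTiter-Glo. EC150 is the concentration raising NQO1 activity 1.5-fold.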

NQO1 [4] = test: NQO1 expression induction test in mouse kidney (single administration); type: in vivo; settings: Mus musculus, po, 6 h, BALB/c mouse kidney, 6 hours after administration, ratio to control group
Method in brief: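 Female BALB/c mice received a single oral dose of compound in 0.5% methylcellulose, with untreated mice as controls. Six hours later, left-kidney NQO1 mRNA was measured by SYBR real-time RT-PCR normalised to GAPDH. Induction was expressed as the ratio of mean treated to mean control expression.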

Structure (SMILES)	Human metabolic rate [1]	inhibition at 0.1 µM [2] [%]	EC (1.5-fold NQO1 activity) (NQO1 [3]) [µM]	fold induction at 20 mg/kg (NQO1 [4])	fold induction at 30 mg/kg (NQO1 [4])
CC[C@@H]1CN(Cc2cc(C(c3ccc4c(nnn4C)c3C)C(C)(C)C(=O)O)ccc2OC)Cc2cc3ncccc3cc2O1 (stereo partly drawn) [Example 81-(b), 3-(1,4-dimethyl-1H-benzo[d][1,2,3]triazol-5-yl)-3-(3-(((R)-2-ethyl-2,3-dihydro-[1,4]oxazepino[7,6-g]quinolin-4 (5H)-yl)methyl)-4-methoxyphenyl)-2,2-dimethylpropanoic Acid]	A (metabolic rate<100 pmol/min/mg protein)	≥ 50	0.005 to 0.05	3 to 6	–
CC[C@@H]1CN(Cc2cc(C(c3ccc4c(nnn4C)c3C)C(C)(C)C(=O)O)ccc2C)Cc2cc3nccc(C)c3cc2O1 (stereo partly drawn) [Example 71-(b), 3-(1,4-dimethyl-1H-benzo[d][1,2,3]triazol-5-yl)-3-(3-(((R)-2-ethyl-10-methyl-2,3-dihydro-[1,4]oxazepino[7,6-g]quinolin-4 (5H)-yl)methyl)-4-methylphenyl)-2,2-dimethylpropanoic Acid]	D (200≤metabolic rate<250 pmol/min/me protein)	≥ 50	0.0005 to 0.005	> 6	–
CC[C@@H]1CN(Cc2cc(C(c3ccc4c(nnn4C)c3C)C(C)(C)C(=O)O)ccc2C)Cc2nc3ccccc3cc2O1 (stereo partly drawn) [Example 10-(b), 3-(1,4-dimethyl-1H-benzo[d][1,2,3]triazol-5-yl)-3-(3-(((R)-2-ethyl-2,3-dihydro-[1,4]oxazepino[6,7-b]quinolin-4 (5H)-yl)methyl)-4-methylphenyl)-2,2-dimethylpropanoic Acid]	C (150≤metabolic rate<200 pmol/min/mg protein)	≥ 50	0.0005 to 0.005	–	> 6
CC[C@@H]1CN(Cc2cc(C(c3ccc4c(nnn4C)c3C)C(C)(C)C(=O)O)ccc2C)Cc2c(ccc3ncccc23)O1 (stereo partly drawn) [Example 18-(b), 3-(1,4-dimethyl-1H-benzo[d][1,2,3]triazol-5-yl)-3-(3-(((R)-4-ethyl-3,4-dihydro-[1,4]oxazepino[6,7-f]quinolin-2(1H)-yl)methyl)-4-methylphenyl)-2,2-dimethylpropanoic Acid]	E (metabolic rate≥250 pmol/min/mg protein)	≥ 50	0.005 to 0.05	–	3 to 6
Cc1ccc(C(c2ccc3c(nnn3C)c2C)C(C)(C)C(=O)O)cc1CN1Cc2cc3ncccc3cc2O[C@H](C)C1 (stereo partly drawn) [Example 75-(b), 3-(1,4-dimethyl-1H-benzo[d][1,2,3]triazol-5-yl)-2,2-dimethyl-3-(4-methyl-3-(((R)-2-methyl-2,3-dihydro-[1,4]oxazepino[7,6-g]quinolin-4 (5H)-yl)methyl)phenyl) propanoic Acid]	E (metabolic rate≥250 pmol/min/mg protein)	≥ 50	0.0005 to 0.005	> 6	–
CC[C@@H]1CN(Cc2cc(C(c3ccc4c(nnn4C)c3C)C(C)(C)C(=O)O)ccc2C)Cc2cc(F)c3ccccc3c2O1 (stereo partly drawn) [Example 49-(b), 3-(1,4-dimethyl-1H-benzo[d](1,2, 3)triazol-5-yl)-3-(3-(((R)-2-ethyl-7-fluoro-2,3-dihydronaphtho[2,1-f][1,4]oxazepin-4 (5H)-yl)methyl)-4-methylphenyl)-2,2-dimethylpropanoic Acid]	B (100≤metabolic rate<150 pmol/min/mg protein)	≥ 50	0.0005 to 0.005	–	> 6
CC[C@@H]1CN(Cc2cc(C(c3ccc4c(nnn4C)c3C)C3(C(=O)O)CCC3)ccc2C)Cc2cc3ncccc3cc2O1 (stereo partly drawn) [Example 84-(b), 1-((1,4-dimethyl-1H-benzo[d][1,2,3]triazol-5-yl) (3-(((R)-2-ethyl-2,3-dihydro-[1,4]oxazepino[7,6-g]quinolin-4 (5H)-yl)methyl)-4-methylphenyl)methyl)cyclobutane-1-carboxylic Acid]	C (150≤metabolic rate<200 pmol/min/mg protein)	≥ 50	0.0005 to 0.005	> 6	–
CC[C@@H]1CN(Cc2cc(C(c3ccc4c(nnn4C)c3C)C(C)(C)C(=O)O)ccc2C)Cc2c(cnc3ccccc23)O1 (stereo partly drawn) [Example 19-(b), 3-(1,4-dimethyl-1H-benzo[d][1,2,3]triazol-5-yl)-3-(3-(((R)-4-ethyl-3,4-dihydro-[1,4]oxazepino[7,6-c]quinolin-2(1H)-yl)methyl)-4-methylphenyl)-2,2-dimethylpropanoic Acid]	E (metabolic rate≥250 pmol/min/mg protein)	≥ 50	0.0005 to 0.005	–	≤ 3
CC[C@@H]1CN(Cc2cc(C(c3ccc4c(nnn4C)c3C)C(C)(C)C(=O)O)ccc2C)Cc2cnc3ccccc3c2O1 (stereo partly drawn) [Example 26-(b), 3-(1,4-dimethyl-1H-benzo[d][1,2,3]triazol-5-yl)-3-(3-(((R)-2-ethyl-2,3-dihydro-[1,4]oxazepino[6,7-c]quinolin-4(5H)-yl)methyl)-4-methylphenyl)-2,2-dimethylpropanoic Acid]	E (metabolic rate≥250 pmol/min/mg protein)	≥ 50	0.0005 to 0.005	–	> 6
CC[C@@H]1CN(Cc2cc(C(c3ccc4c(nnn4C)c3C)C(C)(C)C(=O)O)ccc2C)Cc2c(ccc3cnn(C)c23)O1 (stereo partly drawn) [Example 21-(b), 3-(1,4-dimethyl-1H-benzo[d][1,2, 3)triazol-5-yl)-3-(3-(((R)-7-ethyl-1-methyl-1,7,8,10-tetrahydro-9H-(1,4]oxazepino[7,6-g]indazol-9-yl)methyl)-4-methylphenyl)-2,2-dimethylpropanoic Acid]	D (200≤metabolic rate<250 pmol/min/me protein)	≥ 50	0.05 to 0.5	–	≤ 3
CC[C@@H]1CN(Cc2cccc(C(c3ccc4c(nnn4C)c3C)C(C)(C)C(=O)O)c2)Cc2cc3ncccc3cc2O1 (stereo partly drawn) [Example 79-(b), 3-(1,4-dimethyl-1H-benzo[d][1,2,3]triazol-5-yl)-3-(3-(((R)-2-ethyl-2,3-dihydro-[1,4]oxazepino[7,6-g]quinolin-4(5H)-yl)methyl)phenyl)-2,2-dimethylpropanoic Acid]	E (metabolic rate≥250 pmol/min/mg protein)	≥ 50	0.005 to 0.05	3 to 6	–
CC[C@@H]1CN(Cc2cc(C(c3ccc4c(nnn4C)c3C)C(C)(C)C(=O)O)ccc2C)Cc2cc3nn(C)cc3cc2O1 (stereo partly drawn) [Example 66-(b), 3-(1,4-dimethyl-1H-benzo[d][1,2,3]triazol-5-yl)-3-(3-(((R)-6-ethyl-2-methyl-2,6,7,9-tetrahydro-8H-[1,4]oxazepino[7,6-f]indazol-8-yl)methyl)-4-methylphenyl)-2,2-dimethylpropanoic Acid]	E (metabolic rate≥250 pmol/min/mg protein)	≥ 50	0.0005 to 0.005	> 6	–
CC[C@@H]1CN(Cc2cc(C(c3ccc4c(nnn4C)c3C)C(C)(C)C(=O)O)ccc2Cl)Cc2cc3ncccc3cc2O1 (stereo partly drawn) [Example 80-(b), 3-(4-chloro-3-(((R)-2-ethyl-2,3-dihydro-[1,4]oxazepino[7,6-g]quinolin-4 (5H)-yl)methyl)phenyl)-3-(1,4-dimethyl-1H-benzo[d][1,2, 3]triazol-5-yl)-2,2-dimethylpropanoic Acid]	D (200≤metabolic rate<250 pmol/min/me protein)	≥ 50	0.005 to 0.05	> 6	–
CC[C@@H]1CN(Cc2cc(C(c3ccc4c(nnn4C)c3C)C(C)(C)C(=O)O)ccc2C)Cc2ccc3cnccc3c2O1.O=C(O)C(F)(F)F.O=C(O)C(F)(F)F (stereo partly drawn) [Example 55-(b), 3-(1,4-dimethyl-1H-benzo[d][1,2,3]triazol-5-yl)-3-(3-(((R)-2-ethyl-2,3-dihydro-[1,4]oxazepino[7,6-f]isoquinolin-4(5H)-yl)methyl)-4-methylphenyl)-2,2-dimethylpropanoic Acid Ditrifluoroacetate]	C (150≤metabolic rate<200 pmol/min/mg protein)	≥ 50	0.0005 to 0.005	–	≤ 3
CC[C@@H]1CN(Cc2cc(C(c3ccc4c(nnn4C)c3C)C(C)(C)C(=O)O)ccc2C)Cc2ncc3ccccc3c2O1 (stereo partly drawn) [Example 25-(b), 3-(1,4-dimethyl-1H-benzo[d][1,2,3]triazol-5-yl)-3-(3-(((R)-2-ethyl-2,3-dihydro-[1,4]oxazepino[6,7-c]isoquinolin-4(5H)-yl)methyl)-4-methylphenyl)-2,2-dimethylpropanoic Acid]	D (200≤metabolic rate<250 pmol/min/me protein)	≥ 50	0.0005 to 0.005	–	> 6
